The text below walks through data of US20100173832A1, “ANTICANCEROUS POLYMERIC AGENTS” (TECHNION RESEARCH & DEVELOPMENT FOUNDATION LTD., priority 2007, published 2010).

Broadly, the HC50 is the concentration that lyses half of the red blood cells. The low end stands for stronger haemolysis, the high end for weaker haemolysis.

In one data set the test system is TRAMP-C2 cell line. Format: cell-based. The following applies: for CC50: 24 hours incubation, XTT, read-out: Cancer LC50 Mouse prostate cancer TRAMP-C2. The source says:
Transgenic adenocarcinoma mouse prostate cells (TRAMP-C2);
(§1) As a routine cancer cell killing assay for assessment of antitumor activity, 2,3-bis(2-methoxy-4-nitro-5-sulfophenyl)-2H-tetrazolium-5-carboxanilide inner salt (XTT) reduction assay was used, utilizing a commercial kit such as, for example, Cell Proliferation XTT Kit, Cat. No. 20-300-1000, Biological Industries Ltd., Kibbutz Beit Haemek, Israel. XTT is a tetrazolium salt which is cleaved to formazan colored compounds by the mitochondrial dehydrogenase enzymes indicating proper mitochondrial activity in intact cells.
(§2) Thereafter, a series of increasing concentrations of the polymers were added. After another 24 hours of incubation, XTT reaction solution was added (50 μl of XTT per 100 μl of cell culture medium). The optical density of the cells was measured at 450 nm by ELISA plate reader after 2-4 hours XTT incubation. Cell viability was determined relative to a control having no polymer added thereto.
“Mouse prostate cancer TRAMP-C2” represents the lethal concentration in μM as measured against TRAMP-C2 cell line, measured as described hereinabove in the cell proliferation XTT assay (column 5 in Table 3);
In general terms: Formazan colour is commonly taken as a measure of viable cells.

A further data set concerns MCF-7 cell line. Format: cell-based.
A further data set relates to N-417 cell line. As to the kind of experiment: XTT cell viability assay, N-417 cells. Format: cell-based. Particulars: 24 hours incubation, XTT; read-out: Cancer LC50 Human small-cell lung carcinoma N-417.
Text: Variant small cell lung cancer cells (N-417, SCLC);
as §1, §2
“Human breast cancer MCF-7” represents the lethal concentration in μM as measured against MCF-7 cell line, measured as described hereinabove in the cell proliferation XTT assay (column 6 in Table 3); “Human small-cell lung carcinoma N-417” represents the lethal concentration in μM as measured against N-417 cell line, measured as described hereinabove in the cell proliferation XTT assay (column 7 in Table 3);

Data set [1] can be described thus: XTT cell viability assay, non-cancerous cardiac fibroblasts (CF). The class given is cell-based, rat. Particulars: rat.
Text: Primary non-cancerous rat cardiac fibroblasts (CF);
as §1, §2
“Rat primary cardiac fibroblast CF” represents the lethal concentration in μM as measured against CF cell line, measured as described hereinabove in the cell proliferation XTT assay (column 8 in Table 3);

The next data set can be described thus: in vitro. The following applies: human, red blood cells. How it is done:
(§3) The polymer's toxic potential was determined against human red blood cells (RBC) by measuring leakage of hemoglobin therefrom in phosphate buffer solution (PBS). Human blood samples were rinsed three times in PBS by centrifugation for 2 minutes at 200×g, and re-suspended in PBS at 5% hematocrit. A 50 μl-fractions of a suspension containing […] RBC were added to test tubes containing 200 μl of polymer solutions (2-fold serial dilutions in PBS), PBS alone (for base-line values), or distilled water (for 100% hemolysis). […] Controls for base-line hemolysis (blank) and 100% hemolysis consisted of RBC suspended in PBS and TritonX100 (0.2%), respectively.

In data set [2] the test system is human red blood cells (RBC). As to the kind of experiment: in vitro. How it is done:
as §3

Data set [3] deals with drug-resistant 2008/MRP1 cells. The following applies: human, 3 day.
The subject of data set [4] is drug-resistant 2008/MRP1 cells. Kind of data set: Cytotoxicity against drug-resistant 2008/MRP1 cells. Particulars: read-out: LC50 against drug-resistant 2008/MRP1 cells; 1 day exposure (overnight), FIG. 10.
In data set [5] the test system is ovarian carcinoma 2008 drug-sensitive cells. Kind of data set: Cytotoxicity against drug-sensitive ovarian carcinoma 2008 cells. Particulars: read-out: LC50 against drug-sensitive 2008 cells.
[6] abbreviates: 24 hours incubation, XTT, read-out: Cancer LC50 Human breast cancer MCF-7.
[7] abbreviates: primary non-cancerous cardiac fibroblasts (CF), 24 hours incubation, XTT, non-cancerous cells, read-out: Cancer LC50 Rat primary cardiac fibroblast CF.
Where [8] appears, read: LC50 against non-cancerous CF cells.

Read-outs that look alike come from different tables or passages of the source. Non-standard residues stand in square brackets, D forms with d. Residues, ends and D or L forms follow the SMILES beside them. *: point of attachment. Lauroyl = CCCCCCCCCCCC(=O)*; 12Ado = NCCCCCCCCCCCC(=O)O; Octanoyl = CCCCCCCC(=O)*

Procedure for MCF-7 cell line: Human breast adenocarcinoma cells (MCF-7);
Thereafter, a series of increasing concentrations of the polymers were added. […] The optical density of the cells was measured at 450 nm by ELISA plate reader after 2-4 hours XTT incubation. Cell viability was determined relative to a control having no polymer added thereto.

Regarding `CCCCCCCC(=O)N[C@@H](CCCCN)C(=O)NCCCCCCCCCCCC(=O)N[C@@H](CCCCN)C(=O)N[C@@H](CCCCN)C(=O)NCCCCCCCCCCCC(=O)N[C@@H](CCCCN)C(=O)N[C@@H](CCCCN)C(=O)NCCCCCCCCCCCC(=O)N[C@@H](CCCCN)C(N)=O` [C8(KNC12K)3NH2] (Octanoyl-K[12Ado]KK[12Ado]KK[12Ado]K-NH2), the CC50 came out at 15 ± 0.7 µM with TRAMP-C2 cell line, 8.7 ± 0.5 µM in the data set on MCF-7 cell line (setting [6]) and 9 ± 1.4 µM in the data set on N-417 cell line. Also, the CC50 at 24 h in data set [1] (setting [7]) stood at 37 ± 1 µM. Also, the 50% haemolytic concentration (HC50) at 3 h in the data set “in vitro” worked out at 51 ± 6 µM.

For `NCCCC[C@H](NC(=O)CCCCCCCCCCCNC(=O)[C@H](CCCCN)NC(=O)[C@H](CCCCN)NC(=O)CCCCCCCCCCCNC(=O)[C@H](CCCCN)NC(=O)[C@H](CCCCN)NC(=O)CCCCCCCCCCCNC(=O)[C@@H](N)CCCCN)C(N)=O` [(KNC12K)3NH2] (H-K[12Ado]KK[12Ado]KK[12Ado]K-NH2), the CC50 is over 16 µM with TRAMP-C2 cell line; over 16 µM in the data set on MCF-7 cell line (setting [6]); over 16 µM in the data set with N-417 cell line; over 100 µM in data set [2] (read-out: LC50 RBC (hemolytic concentration inducing lysis of 50% of human red blood cells), 3 hours incubation at 37° C., hemoglobin leakage assay). Further, the CC50 at 24 h in [1] (setting [7]) is over 16 µM. For the same compound, the HC50 at 3 h in the data set “in vitro” is over 100 µM.

As to `NCCCCCCCCCCCC(=O)N[C@@H](CCCCN)C(=O)N[C@@H](CCCCN)C(=O)NCCCCCCCCCCCC(=O)N[C@@H](CCCCN)C(=O)N[C@@H](CCCCN)C(=O)NCCCCCCCCCCCC(=O)N[C@@H](CCCCN)C(=O)N[C@@H](CCCCN)C(=O)NCCCCCCCCCCCC(=O)N[C@@H](CCCCN)C(N)=O` (H-[12Ado]KK[12Ado]KK[12Ado]KK[12Ado]K-NH2), the CC50 in the data set with TRAMP-C2 cell line is 15 µM; with MCF-7 cell line (setting [6]) it was 7 ± 1 µM; in the data set with N-417 cell line it was 10 ± 1 µM; in [3], 4 µM; in data set [4], about 15 µM; in data set [5] (1 day exposure (overnight), FIG. 10), about 15 µM. For the same compound, the CC50 at 24 h in data set [1] (setting [7]) was 35 ± 5 µM. Also, the HC50 at 3 h in the data set “in vitro” was over 100 µM. For the same compound, the “hemolytic concentration versus cytotoxic concentration against cancer cells” value in data set [2] is recorded as “more than one order of magnitude higher”.

With `CCCCCCCCCCCC(=O)N[C@@H](CCCCN)C(=O)N[C@@H](CCCCN)C(=O)NCCCCCCCCCCCC(=O)N[C@@H](CCCCN)C(=O)N[C@@H](CCCCN)C(=O)NCCCCCCCCCCCC(=O)N[C@@H](CCCCN)C(=O)N[C@@H](CCCCN)C(=O)NCCCCCCCCCCCC(=O)N[C@@H](CCCCN)C(N)=O` (Lauroyl-KK[12Ado]KK[12Ado]KK[12Ado]K-NH2), the values for the CC50 with TRAMP-C2 cell line, in the data set on MCF-7 cell line (setting [6]) and in the data set with N-417 cell line were over 16 µM, 8 ± 1 µM and 17 ± 2 µM, respectively. In data set [1] (setting [7]), the CC50 at 24 h came out at 36 ± 6 µM. In addition, the HC50 at 3 h in the data set “in vitro” was determined as 10 ± 1 µM.

Take `COc1cccc2c1C(=O)c1c(O)c3c(c(O)c1C2=O)C[C@@](O)(C(=O)CO)C[C@@H]3O[C@H]1C[C@H](N)[C@H](O)[C@H](C)O1` [doxorubicin, reference compound]: in the data set with TRAMP-C2 cell line (mouse prostate cancer TRAMP-C2 cells, XTT assay), the TRAMP-C2 lethal concentration stood at 0.5 ± 0.5 µM. In the data set with MCF-7 cell line (human breast adenocarcinoma MCF-7 cells, XTT assay), the MCF-7 lethal concentration was found to be 3.3 ± 2 µM. In addition, the CC50 in data set [5] (Homo sapiens, 72 h) is 0.035 µM.

As for `NCCCCCCCCCCCC(=O)N[C@@H](CCCCN)C(=O)NCCCCCCCCCCCC(=O)N[C@@H](CCCCN)C(=O)N[C@@H](CCCCN)C(=O)NCCCCCCCCCCCC(=O)N[C@@H](CCCCN)C(=O)N[C@@H](CCCCN)C(=O)NCCCCCCCCCCCC(=O)N[C@@H](CCCCN)C(N)=O` [NC12(KNC12K)3NH2] (H-[12Ado]K[12Ado]KK[12Ado]KK[12Ado]K-NH2), the CC50 is over 16 µM in the data set on TRAMP-C2 cell line, 7 ± 1 µM in the data set with MCF-7 cell line (setting [6]) and over 16 µM in the data set with N-417 cell line. Moreover, the CC50 at 24 h in data set [1] (setting [7]) was 37 ± 1 µM. The compound further gave an HC50 at 3 h in the data set “in vitro” of over 100 µM. The “hemolytic concentration versus cytotoxic concentration against cancer cells” value in [2] is “more than one order of magnitude higher”.

For the compound `NCCCC[C@H](NC(=O)CCCCCCCCCCCNC(=O)[C@H](CCCCN)NC(=O)[C@H](CCCCN)NC(=O)CCCCCCCCCCCNC(=O)[C@H](CCCCN)NC(=O)[C@H](CCCCN)NC(=O)CCCCCCCCCCCNC(=O)[C@H](CCCCN)NC(=O)[C@@H](N)CCCCN)C(N)=O` [K(KNC12K)3NH2] (H-KK[12Ado]KK[12Ado]KK[12Ado]K-NH2), the CC50 in the data set on TRAMP-C2 cell line, in the data set on MCF-7 cell line (setting [6]) and in the data set on N-417 cell line was over 16 µM throughout. Also, the CC50 at 24 h in data set [1] (setting [7]) is over 16 µM. This compound yielded an HC50 at 3 h in the data set “in vitro” of over 100 µM.

`CCCCCCCCCCCC(=O)N[C@@H](CCCCN)C(=O)NCCCCCCCCCCCC(=O)N[C@@H](CCCCN)C(=O)N[C@@H](CCCCN)C(=O)NCCCCCCCCCCCC(=O)N[C@@H](CCCCN)C(N)=O` [C12(KNC12K)2NH2] (Lauroyl-K[12Ado]KK[12Ado]K-NH2): the CC50 in the data set with TRAMP-C2 cell line was over 16 µM; in the data set on MCF-7 cell line (human, 24 h), 11 µM; with N-417 cell line, 10 ± 1 µM. Also, the results for the CC50 at 24 h in data set [1] (setting [8]) and in data set [1] (setting [7]) were 67 µM and 67 ± 10 µM, respectively. In the data set “in vitro”, this compound had an HC50 at 3 h of 17 ± 6 µM.

Take `CCCCCCCC(=O)N[C@@H](CCCCN)C(=O)N[C@@H](CCCCN)C(=O)NCCCCCCCCCCCC(=O)N[C@@H](CCCCN)C(=O)N[C@@H](CCCCN)C(=O)NCCCCCCCCCCCC(=O)N[C@@H](CCCCN)C(=O)N[C@@H](CCCCN)C(=O)NCCCCCCCCCCCC(=O)N[C@@H](CCCCN)C(N)=O` [C8K(KNC12K)3NH2] (Octanoyl-KK[12Ado]KK[12Ado]KK[12Ado]K-NH2): the CC50 was 16 ± 2 µM with TRAMP-C2 cell line; 5.7 ± 0.3 µM in the data set on MCF-7 cell line (setting [6]); 5.5 µM in the data set on MCF-7 cell line (dose-dependent plots, FIGS. 4a-b, read-out: LC50 against MCF-7 cells); 10 ± 0.4 µM with N-417 cell line. Further, the values for the CC50 at 24 h in data set [1] (setting [8]) and in data set [1] (setting [7]) were 25 µM and 25 ± 8 µM, respectively. The compound further gave an HC50 at 3 h in the data set “in vitro” of over 100 µM.
